Measurements reported in the OligoGym collection.
Where “and” joins values, the source holds several entries; their conditions need not be identical. Equal values may be shown once. After the bases stand the sugars from the 5' end (letter, count) and the backbone: PS all phosphorothioate, else s phosphorothioate and o phosphodiester by linkage. Methylation of C is not given here. e = 2'-O-(2-methoxyethyl) (MOE); k = constrained ethyl (cEt); d = 2'-deoxy (DNA)

Target: IRF4
Conditions: ASO

Sequence	target mRNA inhibition (SK-MEL-28, 4 µM)	target mRNA inhibition (MM.1R, 1 µM)	also measured
AGCACATGTCAACAGT (sugars k3 d10 k3, PS)	31%		
AGCATCTAAGGCAAGC (sugars k3 d10 k3, PS)	57%		
AGCATTTTATCATCCG (sugars kkkdddddddddkeke, PS)		42%	
AGCCACTGGCGGAGCT (sugars k3 d10 k3, PS)	38%		
AGCCAGAGCAGTAAAC (sugars k3 d10 k3, PS)	15%		
AGCCATCGGCAGCTGA (sugars k3 d10 k3, PS)	14%		
AGCCCAAAGTTACATC (sugars k3 d10 k3, PS)	42%		
AGCCCTTACCTCGCCC (sugars k3 d10 k3, PS)	25%		
AGCCGAAGCATTTTAT (sugars k3 d10 k3, PS)	44%		
AGCCGAGGCCTCCTTT (sugars k3 d10 k3, PS)		-28%	
AGCCGCCACATCAGCA (sugars k3 d10 k3, PS)	21%		
AGCTAACTTACAGGAC (sugars k3 d10 k3, PS)	-4%		
AGCTAGAACATGATGA (sugars k3 d10 k3, PS)	5%		
AGCTATGCTCTAGGAA (sugars k3 d10 k3, PS)		11%	
AGCTGAGCTGATCATC (sugars k3 d10 k3, PS)	56%		
AGCTGCCACTGGTAAC (sugars k3 d10 k3, PS)		0%	
AGCTTAGTTATCTGGG (sugars k3 d10 k3, PS)	54% and 59%		
AGCTTGATAAAGGCTG (sugars k3 d10 k3, PS)	36%		
AGCTTGATAAAGGCTG (sugars kddddddddddkekek, PS)		1%	
AGCTTGATAAAGGCTG (sugars kkdddddddddekeke, PS)		18%	
AGGAACAAGTGTATCT (sugars k3 d10 k3, PS)	46%		
AGGAAGCACTGGCATC (sugars k3 d10 k3, PS)	57%		
AGGAGATATTAATTAC (sugars k3 d10 k3, PS)	57%		
AGGCACATCAATGTTT (sugars k2 d9 e3 k2, PS)		36% and 43%	
AGGCACATCAATGTTT (sugars k3 d10 k3, PS)	51%		
AGGCACATCAATGTTT (sugars kddddddddddkekek, PS)		5%	
AGGCACATCAATGTTT (sugars kkddddddddddkeke, PS)		16% and 14%	

Sequence	target mRNA inhibition (SK-MEL-28, 4 µM)	target mRNA inhibition (MM.1R, 1 µM)	also measured
AGGCACGGCTTCAGTC (sugars k3 d10 k3, PS)	49%		
AGGCAGGGACCGCGCC (sugars k3 d10 k3, PS)		-11%	
AGGGAACAGATAGTTA (sugars k3 d10 k3, PS)	34%		
AGGGAATCCCTTATTA (sugars k3 d10 k3, PS)	6%		
AGGGAGCTCATTTTGA (sugars k3 d10 k3, PS)		-8%	
AGGGTCACAGGTAAGG (sugars k3 d10 k3, PS)	68%		
AGGTAAGGGCCCCGTG (sugars k3 d10 k3, PS)	47%		
AGGTAGTGGCCCCAGC (sugars k3 d10 k3, PS)	60%		
AGGTTCCTGTCACCTG (sugars k3 d10 k3, PS)		-7%	
AGTACGAGCACATGTC (sugars k3 d10 k3, PS)	34%		
AGTACTTGGACAGAAG (sugars k3 d10 k3, PS)	43%		
AGTAGCTGGGCCCTCG (sugars k3 d10 k3, PS)	62%		
AGTATGAGAAACGGCC (sugars e1 k2 d9 k2 e2, PS)		12%	
AGTATGAGAAACGGCC (sugars kkdddddddddkdkdk, PS)		6%	
AGTATGAGAAACGGCC (sugars kkkddddddddkekek, PS)		10%	
AGTCAGACAGTGCGCC (sugars k3 d10 k3, PS)	10%		
AGTCCTCAAATCTTCA (sugars k3 d10 k3, PS)	54%		
AGTCGCGCAAGTCTAC (sugars k3 d10 k3, PS)		0%	
AGTGACTTGCATCCAT (sugars kddddddddddkekek, PS)		2%	
AGTGAGATGCGGAGGT (sugars k3 d10 k3, PS)		65%	
AGTGATGTCAGGTTTT (sugars kkdddddddddekeke, PS)		33%	
AGTGTCTAAAGTCCCA (sugars k2 d9 e3 k2, PS)		26% and 12%	
AGTGTCTAAAGTCCCA (sugars k3 d10 k3, PS)		42% and 58%	target mRNA inhibition (MM.1R, 0.0625 µM): 15%; target mRNA inhibition (MM.1R, 0.25 µM): 34%; target mRNA inhibition (MM.1R, 4 µM): 75%
AGTGTCTAAAGTCCCA (sugars kddddddddddkekek, PS)		-1% and 3%	
AGTGTCTAAAGTCCCA (sugars kkddddddddddkeke, PS)		32% and 39%	
AGTGTCTAAAGTCCCA (sugars kkdddddddddkdkdk, PS)		14% and -5%	
